Data on three molecules can be found in patent publication US9763998B2, “Serpins: methods of therapeutic β-cell regeneration and function” (Joslin Diabetes Center, Inc., priority 2013, dated 2017).

The test system of test [1] is freshly isolated primary mouse islets (β-cells). Kind of test: Primary mouse islet β-cell proliferation by Ki67 immunofluorescent staining (SerpinB1, ovalbumin, Sivelestat). It counts as cell-based. The source says:
To test whether SerpinB1 is a β-cell growth factor, we cultured freshly isolated primary mouse islets in presence of various doses of recombinant human SerpinB1 or ovalbumin (SerpinB14) and evaluated β-cell proliferation by Ki67 immunofluorescent staining (known to those of ordinary skill in the art). […] A major substrate of SerpinB1 is neutrophil elastase. To investigate whether the proliferative action of SerpinB1 is mediated by antagonizing neutrophil elastase activity, we assessed the ability of the neutrophil elastase inhibitor, Sivelestat (Sivelestat is the International Nonproprietary Name (INN) as given by the World Health Organization (WHO); the chemical name is: N-{2-[({4-[(2,2-dimethylpropanoyl)oxy]phenyl}sulfonyl)amino]benzoyl}glycine), to stimulate islet β-cell proliferation in vitro.
In all experiments, cell counting was manually performed in a blinded fashion by a single observer. BrdU+ or Ki67+β cells were assessed by immunofluorescence microscopy. Insulin+ cells showing nuclear DAPI staining were considered as β cells. Insulin+ cells showing nuclear colocalized staining for DAPI+ and Ki67+ (or BrdU+) were counted as proliferating β cells. The double-positive cells (Ins+/BrdU+ or Ins+/Ki67+) were confirmed in randomly selected cells in all experiments by confocal microscopy.

For test [2], the system named is human (EndoC-βH1) β-cells. Kind of test: Ki67 positive human β-cells (EndoC-βH1) with Sivelestat. It counts as cell-based. Conditions: 100 μg/ml; compared to non-treated cells.
Setting [3] is: 1 μg/ml, SerpinB1 compared to islets cultured at a similar concentration of ovalbumin.

Turning to `CC(C)(C)C(=O)Oc1ccc(S(=O)(=O)Nc2ccccc2C(=O)NCC(=O)O)cc1` [Sivelestat, N-{2-[({4-[(2,2-dimethylpropanoyl)oxy]phenyl}sulfonyl)amino]benzoyl}glycine], in test [1] (higher doses (e.g. 10 and 50 μg/ml)), the “number of proliferating insulin+ cells” value is “substantial increase”. Besides, in test [1] (low doses (1 and 5 μg/ml), FIG. 12), the “islet β-cell proliferation in vitro” value is listed as “do not enhance β-cell proliferation”. Moreover, the “number of Ki67 positive β-cells” value in test [2] was “increased”.
In the case of “ovalbumin: ovalbumin (SerpinB14), control protein for SerpinB1 in islet culture”, in test [1] (setting [3]), the “Ki67+ insulin+ cells (β-cell proliferation)” value is “normal low β-cell proliferation”.

B1: SerpinB1: 42 kD serine peptidase inhibitor protein regulating neutrophil proteases; used as recombinant human SerpinB1 (protein, UniProt P30740 1-379, looked up)
Leukocyte elastase inhibitor: MEQLSSANTRFALDLFLALSENNPAGNIFISPFSISSAMAMVFLGTRGNTAAQLSKTFHFNTVEEVHSRFQSLNADINKRGASYILKLANRLYGEKTYNFLPEFLVSTQKTYGADLASVDFQHASEDARKTINQWVKGQTEGKIPELLASGMVDNMTKLVLVNAIYFKGNWKDKFMKEATTNAPFRLNKKDRKTVKMMYQKKKFAYGYIEDLKCRVLELPYQGEELSMVILLPDDIEDESTGLKKIEEQLTLEKLHEWTKPENLDFIEVNVSLPRFKLEESYTLNSDLARLGVQDLFNSSKADLSGMSGARDIFISKIVHKSFVEVNEEGTEAAAATAGIATFCMLMPEENFTADHPFLFFIRHNSSGSILFLGRFSSP
Turning to B1, the “Ki67+ insulin+ cells (β-cell proliferation)” value in test [1] (setting [3]) is “reached statistical significance”; in test [1] (isolated mouse islets cultured with various doses of recombinant SerpinB1), “dose-dependent increase”.
